Measurements from patent US10858357B2, “Water-soluble myosin 2 inhibitors for the treatment of neurological, neuropathic or psychiatric diseases” (PARIS SCIENCES ET LETTRES-QUARTIER LATIN, priority 2016, dated 2020).
Like-named read-outs stand apart in the source and are kept apart here.

Columns and labels:
[1] = test system: human melanoma (M2) cells; assay: Inhibition of blebbing of M2 cells (blebbing index); assay type: cell-based
Description: For blebbing index determination, M2 cells were incubated for 30 minutes in PBS in every case prior to the addition of inhibitors, in order to initiate extensive blebbing. Blebbing of the cells was monitored before as well as after inhibitor addition to the cells. DMSO concentration was 0.1 vol/vol % in all experiments. Blebbing index was calculated by summing the initiated blebs in a 5-minute interval (starting at the indicated time points) on a given standard area 17 (whole cells with similar size, diameter=12±1 μm) and normalizing it to the blebbing index prior to inhibitor treatment.
As myosin 2 inhibition blocks blebbing of M2 cells (Straight et al., Science, 2003, 299 (5613), pp 1743-7), the blebbing indices ((Charras, G. T., Yarrow, J. C., Horton, M. A., Mahadevan, L. & Mitchison, T. J. Non-equilibration of hydrostatic pressure in blebbing cells. Nature 435, 365-369, doi:10.1038/nature03550 (2005))) of M2 cells were measured in time, after incubating the cells in neurelaxin-A at different concentrations (FIG. 3C).

[2] = molecular target: T1, rabbit skeletal muscle myosin S1 (SkS1) (Oryctolagus cuniculus, UniProt Q28641); assay: Steady state MgATPase, NADH-coupled assay, SkS1; assay type: biochemical
T1 construct: SkS1 (rabbit skeletal S1 fragment); from tissue; host or cells: rabbit skeletal muscle
T1 sequence (Q28641 1-843 limits assumed): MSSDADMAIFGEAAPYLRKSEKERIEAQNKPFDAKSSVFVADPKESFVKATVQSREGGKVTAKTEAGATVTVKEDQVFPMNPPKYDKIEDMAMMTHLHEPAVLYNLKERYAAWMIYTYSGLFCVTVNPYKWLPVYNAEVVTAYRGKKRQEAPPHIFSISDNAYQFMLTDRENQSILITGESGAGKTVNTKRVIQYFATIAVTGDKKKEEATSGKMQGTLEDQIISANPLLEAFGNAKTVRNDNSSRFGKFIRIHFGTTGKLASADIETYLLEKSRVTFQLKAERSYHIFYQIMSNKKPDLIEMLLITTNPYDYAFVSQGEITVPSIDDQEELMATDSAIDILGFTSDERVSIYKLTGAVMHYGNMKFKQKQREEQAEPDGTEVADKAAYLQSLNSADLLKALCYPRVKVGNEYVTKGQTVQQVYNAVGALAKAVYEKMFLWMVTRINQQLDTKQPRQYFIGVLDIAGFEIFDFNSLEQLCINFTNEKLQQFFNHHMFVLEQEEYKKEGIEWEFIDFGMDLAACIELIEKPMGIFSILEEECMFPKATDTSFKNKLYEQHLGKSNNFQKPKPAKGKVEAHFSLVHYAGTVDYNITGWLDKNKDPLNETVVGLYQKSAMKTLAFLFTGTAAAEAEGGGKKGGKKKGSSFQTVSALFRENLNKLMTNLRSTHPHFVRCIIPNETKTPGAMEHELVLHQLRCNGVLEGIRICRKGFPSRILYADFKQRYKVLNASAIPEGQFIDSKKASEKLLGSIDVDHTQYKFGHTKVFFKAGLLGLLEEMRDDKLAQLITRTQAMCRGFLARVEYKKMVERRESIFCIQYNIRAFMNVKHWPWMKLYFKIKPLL
T1 sequence (P02602 whole entry partner, the tested form may be a part): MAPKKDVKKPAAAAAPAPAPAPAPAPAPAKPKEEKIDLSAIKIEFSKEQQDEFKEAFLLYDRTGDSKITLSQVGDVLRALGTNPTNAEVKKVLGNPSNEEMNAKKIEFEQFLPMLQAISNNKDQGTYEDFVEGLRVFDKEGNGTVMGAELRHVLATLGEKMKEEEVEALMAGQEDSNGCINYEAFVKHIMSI
Description: MgATPase activities of 500 nM (for basal ATPase) or 50 nM (for actin activated ATPase) SkS1 (rabbit skeletal S1 fragment) 23 and 1 μM (for basal ATPase) or 300 nM (for actin activated ATPase) DdMD were measured at increasing concentrations of neurelaxin-A in the absence or in the presence of 45 μM actin for SkS1 or 15 μM actin for DdMD. Measurements were carried out using a pyruvate kinase/lactate dehydrogenase coupled assay (NADH-coupled assay) (Kovacs M. et al., J. Biol. Chem. 2004, 279 (34), pp 35557-35563) at 25° C. or 20° C. in case of SkS1 or DdMD, respectively. Myosin and actin together with the indicated concentration of the inhibitor were pre-incubated for 5 minutes at room temperature and the measurements were initiated with 1 mM ATP. Data were corrected for background ATPase activity of actin. G-actin was prepared accordingly from rabbit skeletal muscle (Spudich, J. A. & Watt, S.; The Journal of Biological Chemistry 246, 1971, pp 4866-4871) and polymerized by 2 mM MgCl2 for 1 hour at room temperature. Measurements were performed in low salt buffer containing 5 mM HEPES, 2 mM MgCl2, 0.1 mM EGTA and 2 mM DTT at pH 7.2 or assay buffer containing 20 mM HEPES, 40 mM NaCl, 4 mM MgCl2 at pH 7.3 for basal ATPase activity measurements with DdMD.
The basal and actin activated ATPase activities of rabbit skeletal muscle myosin S1 (SkS1) and Dictyostelium discoideum myosin 2 motor domain (DdMD) were measured at increasing concentrations of neurelaxin-A (FIGS. 3A and 3B).

[3] = test system: Mauthner axon of zebrafish embryos; assay: Mauthner axon regeneration after photoablation; assay type: in vivo; details: 3 dpf zebrafish embryos
Description: The Mauthner neuron is a giant neuron in the hindbrain of zebrafish embryos, which is a widely used model for studying regeneration. The Mauthner axon of 3 dpf zebrafish embryos was photoablated with two-photon irradiation at 800 nm.

[4] = test system: zebrafish skeletal muscle; assay: Zebrafish fast escape response (C-start), maximal angular velocity; assay type: in vivo, zebrafish (Danio rerio); details: 6 dpf zebrafish
Description: For the fast escape response experiments, 6 dpf larvae were placed in 50 μl drops on a plastic plate. They were treated with 0, 2, 5, 10 or 20 μM of neurelaxin-A. To evoke C-start response, acoustic stimuli were applied according to the following protocol: 10 taps were carried out with 1 minute intervals every hour for 4 hours. The force of tapping was standardized. Images were recorded with Ximea Camera (MQ003MG-CM) at 500 fps for 2 s. Data were analyzed by Flote software version 2.1 and maximal angular velocity parameters of C-start reflex were quantified. For the experiments investigating the effect of the inhibitor on the heart muscle of zebrafish, 6 dpf larvae were embedded in 1% agarose and kept in E3 in the presence of 20 μM neurelaxin-A. Videos were taken by a camera at 15.1 fps before and after inhibitor treatment every hour for 3 hours.
Transgenic Tg(−8.0cldnb:lynEGFP)^zf106 (cldnb:gfp) (Haas, P. & Gilmour, D., Developmental Cell 10, 2006, pp 673-680) zebrafish (Danio rerio) were maintained in the animal facility of Eötvös Loránd University. […]
The relative rate of in vivo skeletal muscle contraction was quantified based on the velocity of the rotating heads of the animals have been quantified (maximal angular velocity) in the absence and in the presence of neurelaxin-A (2 μM), monitored for 4 hours.

[5] = test system: EGFP-α-tubulin H2B-mCherry HeLa Kyoto cells; assay: HeLa cell toxicity, 12-hour confocal time-lapse imaging; assay type: cell-based, human; details: 50 μM, 12 hours imaging
Description: For phototoxicity experiments, confocal time-lapse imaging of HeLa Kyoto H2B-mCherry eGFP-α-tubulin cells for 12 hours was performed in DMEM further supplemented with 25 mM HEPES in order to achieve CO2 independent media. Confocal time-lapse imaging was performed on a Zeiss LSM 710 using a Plan Apo 20×/0.8 objective, with the following parameters: 2% laser intensity at λexc=488 nm, 3% laser intensity at λexc=543 nm, 1.2× zoom, average 4, line step 1, 1000×1000 pixels, 0.35 μm pixel size, 0.65 μs dwell time, 3 slice/z-stack with 7 μm between slices at every 10 minutes.
To test the cytotoxicity of neurelaxin-A in live-cell fluorescence microscopy, time-lapse EGFP-α-tubulin H2B-mCherry labeled HeLa Kyoto cells were imaged in a confocal microscope (FIG. 4a).
Cells were treated with 50 μM neurelaxin-A and imaged for 12 hours applying 3 z-sections every 10 minutes.

Question: With `Cc1ccc2c(c1)C(=O)C1(O)CCN(c3ccc(N)cc3)C1=N2` (stereo not shown) [Neurelaxin-A, 1-(4-aminophenyl)-3a-hydroxy-6-methyl-3,3a-dihydro-1H-pyrrolo[2,3-b]quinolin-4(2H)-one] as the molecule, how does the “τ, time constant of suppression of blebbing index” value ([1]; 5 μM) read?
Answer: 25.0 ± 4.3 min

Question: And the “effect on blebbing indices” value ([1]; 5 μM, within an hour)?
Answer: significant decrease

Question: What about the “time within which blebbing completely stopped” value ([1]; 10 μM) of the same molecule?
Answer: 40 to 60 min

Question: And the “τ, time constant of suppression of blebbing index” value ([1]; 10 μM)?
Answer: 16.8 ± 1.6 min

Question: What about the “time within which blebbing completely stopped” value ([1]; 25 μM) of the same molecule?
Answer: > 20 min

Question: And the “τ, time constant of suppression of blebbing index” value ([1]; 25 μM)?
Answer: 9.9 ± 0.3 min

Question: And the “time within which blebbing completely stopped” value ([1]; 50 μM)?
Answer: > 20 min

Question: And the “τ, time constant of suppression of blebbing index” value ([1]; 50 μM)?
Answer: 7.8 ± 0.3 min

Question: What about the “maximal extent of inhibition, actin activated ATPase of SkS1” value ([2]; actin activated) of the same molecule?
Answer: 98-100%

Question: What about the IC50 ([2]; actin activated, 50 nM SkS1, 45 μM actin, 25° C., read-out: IC50 actin activated ATPase activity of SkS1) of the same molecule?
Answer: 0.47 ± 0.06 µM

Question: And the “maximal extent of inhibition, basal ATPase of SkS1” value ([2]; basal)?
Answer: 98-100%

Question: And the IC50 ([2]; basal, 500 nM SkS1, 25° C., read-out: IC50 basal ATPase of SkS1)?
Answer: 1.3 ± 0.1 µM

Question: And the “maximum rate of axon growth” value [3]?
Answer: 0.6 um/min

Question: What about the “time after treatment at which axon regrowth is induced” value [3] of the same molecule?
Answer: 1 h

Question: And the “time of treatment at which maximum rate of growth is reached” value [3]?
Answer: 2 h

Question: And the “start of axon regrowth post-ablation” value ([3]; spontaneous regrowth normally after 30 hours)?
Answer: 19 h

Question: What about the “time of half inhibition of maximal angular velocity” value ([4]; 2 μM) of the same molecule?
Answer: 3.2 h

Question: And the EC50 ([4]; Danio rerio, C-start, monitored for 4 hours, read-out: EC50 for the inhibition of the maximal angular velocity)?
Answer: < 2 µM

Question: What about the “signs of toxicity in HeLa Kyoto cells” value [5] of the same molecule?
Answer: did not show any signs of toxicity
